Laboratory results: patent publication US11254668B2, “Pyrazolo[1,5-A]pyrazin-4-yl and related derivatives” (Pfizer Inc., priority 2017, dated 2022)
Like-named read-outs stand apart in the source and are kept apart here.

Experiments:
Format in all cases: biochemical
JAK1 = JAK1 (Homo sapiens (Human), UniProt P23458); test: JAK Caliper Enzyme Assay at 1 mM ATP, JAK1
Description: (§1) Compounds of the invention were evaluated by in vitro methods to determine their respective ability to inhibit the JAK kinases (TYK2, JAK1, JAK2, JAK3).
(§2) The human JAK inhibitory activity was determined by using a microfluidic assay to monitor phosphorylation of a synthetic peptide by the recombinant human kinase domain of each of the four members of the JAK family, JAK1, JAK2, JAK3 and TYK2. […] Each assay condition was optimized for enzyme concentration and room temperature incubation time to obtain a conversion rate of 20% to 30% phosphorylated peptide product. Reactions were terminated by the addition of stop buffer containing EDTA. Utilizing the LabChip 3000 mobility shift technology (Caliper Life Science), each assay reaction was sampled to determine the level of phosphorylation. This technology is separation-based, allowing direct detection of fluorescently labeled substrates and products. Separations are controlled by a combination of vacuum pressure and electric field strength optimized for each peptide substrate.
(§3) JAK Caliper Enzyme Assay at 1mM ATP
(§4) Compounds were added to a 384-well plate.
(§5) The data was collected using the HTS Well Analyzer software from Caliper Life Sciences. The data output for data analysis is the percent product converted calculated on peak height (Equation 1). % product converted=100*((product)/(product+substrate)) Equation 1: […]
(§6) The percent effect at each compound concentration was calculated based on the positive and negative control well contained within each assay plate (Equation 2). […] The negative control wells contained DMSO alone (at the same concentration as the compound wells) that was used to set the baseline activity in the assay (i.e., uninhibited JAK1, JAK2, JAK3 or TYK2). % effect=100*([…](positive control-negative control)) Equation 2: […]
(§7) The percent effect was plotted against the compound concentration compound.

TYK2 = TYK2 (Homo sapiens (Human), UniProt P29597); test: JAK Caliper Enzyme Assay at 1 mM ATP, TYK2
Chain of TYK2 (P29597 897-1176): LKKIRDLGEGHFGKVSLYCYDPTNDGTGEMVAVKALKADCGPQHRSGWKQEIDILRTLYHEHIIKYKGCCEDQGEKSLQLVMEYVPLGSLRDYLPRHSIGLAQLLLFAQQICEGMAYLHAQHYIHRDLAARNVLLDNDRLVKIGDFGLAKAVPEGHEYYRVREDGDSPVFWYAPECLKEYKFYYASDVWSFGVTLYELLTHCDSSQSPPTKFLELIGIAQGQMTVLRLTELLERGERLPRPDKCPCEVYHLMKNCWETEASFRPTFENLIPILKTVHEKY
Description: as §1, §2, §3, §4, §5, §6, §7

JAK3 = JAK3 (Homo sapiens (Human), UniProt P52333); test: JAK Caliper Enzyme Assay at 1 mM ATP, JAK3
Chain of JAK3 (P52333 822-1111): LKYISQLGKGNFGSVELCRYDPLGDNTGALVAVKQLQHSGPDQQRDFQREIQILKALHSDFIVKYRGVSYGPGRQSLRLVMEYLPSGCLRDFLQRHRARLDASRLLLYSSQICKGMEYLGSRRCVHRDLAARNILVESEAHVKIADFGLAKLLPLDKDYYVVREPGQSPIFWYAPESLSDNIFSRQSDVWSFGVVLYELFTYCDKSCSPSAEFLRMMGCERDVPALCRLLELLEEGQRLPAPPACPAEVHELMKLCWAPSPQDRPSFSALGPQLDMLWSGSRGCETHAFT
Description: as §1, §2, §3, §4, §5, §6, §7

JAK2 = JAK2 (Homo sapiens (Human), UniProt O60674); test: JAK Caliper Enzyme Assay at 1 mM ATP, JAK2
Chain of JAK2 (O60674 849-1124): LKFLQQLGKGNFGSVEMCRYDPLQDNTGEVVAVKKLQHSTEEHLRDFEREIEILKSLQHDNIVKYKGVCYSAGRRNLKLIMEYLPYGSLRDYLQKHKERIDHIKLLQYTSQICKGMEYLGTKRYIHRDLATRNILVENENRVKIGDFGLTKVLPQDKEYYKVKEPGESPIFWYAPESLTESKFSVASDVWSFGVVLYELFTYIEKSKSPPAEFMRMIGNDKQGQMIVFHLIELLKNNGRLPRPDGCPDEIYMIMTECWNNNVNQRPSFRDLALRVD
Description: as §1, §2, §3, §4, §5, §6, §7

Chain of JAK1 (P23458 875-1153): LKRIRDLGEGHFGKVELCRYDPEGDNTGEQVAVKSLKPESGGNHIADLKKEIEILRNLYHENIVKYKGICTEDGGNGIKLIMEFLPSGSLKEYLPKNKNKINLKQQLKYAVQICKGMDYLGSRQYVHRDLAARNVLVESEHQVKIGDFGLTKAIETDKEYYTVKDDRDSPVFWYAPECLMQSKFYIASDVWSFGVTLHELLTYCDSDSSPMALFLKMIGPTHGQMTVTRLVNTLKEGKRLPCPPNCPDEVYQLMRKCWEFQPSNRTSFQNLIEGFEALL

IC50 (JAK1) | IC50 (TYK2) | IC50 (JAK3) | IC50 (JAK2) | IC50 (JAK1; JAK Caliper enzyme assay) | IC50 (JAK3; JAK Caliper enzyme assay) | IC50 (JAK2; JAK Caliper enzyme assay) | IC50 (TYK2; JAK Caliper enzyme assay) | Structure (SMILES)
2730 nM | 129 nM | > 10000 nM | 1290 nM |  |  |  |  | N#CCC1(n2ccc(-c3nc(-c4ccc5nncn5c4)cc4ncccc34)n2)CN(CC(F)(F)F)C1 [Example 167, [3-{3-[7-([1,2,4]triazolo[4,3-a]pyridin-6-yl)-1,6-naphthyridin-5-yl]-1H-pyrazol-1-yl}-1-(2,2,2-trifluoroethyl)azetidin-3-yl]acetonitrile]
2960 nM | 236 nM | > 10000 nM | 1750 nM |  |  |  |  | N#CC[C@]1(n2cc(-c3cc(-c4cn[nH]c4N)cc4ncccc34)cn2)C[C@H](C#N)C1 [Example 290, trans-3-{4-[7-(5-amino-1H-pyrazol-4-yl)quinolin-5-yl]-1H-pyrazol-1-yl}-3-(cyanomethyl)cyclobutanecarbonitrile]
436 nM | 20 nM | > 10000 nM | 173 nM |  |  |  |  | N#CC[C@]1(n2ncc(-c3cc(-c4cc[nH]n4)cc4ncccc34)n2)C[C@H](C#N)C1 [Example 302, trans-3-(cyanomethyl)-3-{4-[7-(1H-pyrazol-3-yl)quinolin-5-yl]-2H-1,2,3-triazol-2-yl}cyclobutanecarbonitrile]
384 nM | 21 nM | > 10000 nM | 397 nM |  |  |  |  | N#CCC1(n2ccc(-c3nc(-c4ccc(O)nc4)cc4ncccc34)n2)CN(CC(F)(F)F)C1 [Example 183, [3-{3-[7-(6-hydroxypyridin-3-yl)-1,6-naphthyridin-5-yl]-1H-pyrazol-1-yl}-1-(2,2,2-trifluoroethyl)azetidin-3-yl]acetonitrile]
291 nM | 16 nM | 3320 nM |  |  |  |  |  | N#CCC1(n2ncc(-c3cc(-c4cc[nH]n4)cc4ncccc34)n2)CN(S(N)(=O)=O)C1 [Example 300, 3-(cyanomethyl)-3-{4-[7-(1H-pyrazol-3-yl)quinolin-5-yl]-2H-1,2,3-triazol-2-yl}azetidine-1-sulfonamide]
 |  |  |  | > 10000 nM | > 10000 nM | 8950 nM |  | N#CC[C@]1(n2ncc(-c3cc(-c4cncc(N)n4)cc4ncccc34)n2)C[C@H](C#N)C1 [Example 397, trans-3-{4-[7-(6-aminopyrazin-2-yl)quinolin-5-yl]-2H-1,2,3-triazol-2-yl}-3-(cyanomethyl)cyclobutanecarbonitrile]
1630 nM | 251 nM | > 10000 nM |  |  |  |  |  | C=C(CO)n1cc(-c2cc3ncccc3c(-c3ccn(C4(CC#N)CN(S(C)(=O)=O)C4)n3)n2)cn1 [Example 131, [3-(3-{7-[1-(3-hydroxyprop-1-en-2-yl)-1H-pyrazol-4-yl]-1,6-naphthyridin-5-yl}-1H-pyrazol-1-yl)-1-(methylsulfonyl)azetidin-3-yl]acetonitrile]
1590 nM | 18 nM | > 10000 nM |  |  |  |  |  | Cn1nc(-c2cc3ncccc3c(-c3ccn([C@]4(CC#N)C[C@@H](C#N)C4)n3)n2)cc1N [Example 65, trans-3-{3-[7-(5-amino-1-methyl-1H-pyrazol-3-yl)-1,6-naphthyridin-5-yl]-1H-pyrazol-1-yl}-3-(cyanomethyl)cyclobutanecarbonitrile]
594 nM | 23 nM | > 10000 nM |  |  |  |  |  | CS(=O)(=O)N1CC(CC#N)(n2ncc(-c3cc(-c4cc[nH]n4)cc4ncccc34)n2)C1 [Example 298, [1-(methylsulfonyl)-3-{4-[7-(1H-pyrazol-3-yl)quinolin-5-yl]-2H-1,2,3-triazol-2-yl}azetidin-3-yl]acetonitrile]
 |  |  |  | 8560 nM | > 10000 nM |  | 1030 nM | N#CC[C@]1(n2ncc(-c3cc(-c4cnc(N)nc4)cc4ncccc34)n2)C[C@@H](C#N)C1 [Example 394, cis-3-{4-[7-(2-aminopyrimidin-5-yl)quinolin-5-yl]-2H-1,2,3-triazol-2-yl}-3-(cyanomethyl)cyclobutanecarbonitrile]
1700 nM | 238 nM | > 10000 nM |  |  |  |  |  | CC(=O)N(C)[C@H]1C[C@](CC#N)(n2ccc(-c3nc(-c4cc[nH]n4)cc4ncccc34)n2)C1 [Example 34, N-[cis-3-(cyanomethyl)-3-{3-[7-(1H-pyrazol-3-yl)-1,6-naphthyridin-5-yl]-pyrazol-1-yl}cyclobutyl]-N-methylacetamide]
5700 nM | 850 nM | > 10000 nM |  |  |  |  |  | CC(=O)N(C)C1CC(CC#N)(n2ccc(-c3nc(-c4cc[nH]n4)cc4ncccc34)n2)C1 (stereo not drawn) [Example 33, N-[trans-3-(cyanomethyl)-3-{3-[7-(1H-pyrazol-3-yl)-1,6-naphthyridin-5-yl]-pyrazol-1-yl}cyclobutyl]-N-methylacetamide]
2730 nM | 66 nM | > 10000 nM |  |  |  |  |  | N#CCC1(n2ccc(-c3nc(-c4cccnc4)cc4ncccc34)n2)CN(CC(F)(F)F)C1 [Example 171, [3-{3-[7-(pyridin-3-yl)-1,6-naphthyridin-5-yl]-1H-pyrazol-1-yl}-1-(2,2,2-trifluoroethyl)azetidin-3-yl]acetonitrile]
 | 5270 nM |  | > 10000 nM |  |  |  |  | Cn1ncc(-c2cc(-c3cnn([C@]4(CC#N)C[C@@H](C#N)C4)n3)c3cccnc3c2)c1C(N)=O [Example 335, 4-(5-{2-[trans-3-cyano-1-(cyanomethyl)cyclobutyl]-2H-1,2,3-triazol-4-yl}quinolin-7-yl)-1-methyl-1H-pyrazole-5-carboxamide]
2410 nM | 430 nM | > 10000 nM |  |  |  |  |  | Cn1nccc1C1CC(CC#N)(n2ccc(-c3nc(-c4cn[nH]c4)cc4ncccc34)n2)C1 (stereo not drawn) [Example 86, [cis-3-(1-methyl-1H-pyrazol-5-yl)-1-{3-[7-(1H-pyrazol-4-yl)-1,6-naphthyridin-5-yl]-1H-pyrazol-1-yl}cyclobutyl]acetonitrile]
5870 nM | 31 nM | > 10000 nM |  |  |  |  |  | Cn1cc(-c2cc(-c3cnn([C@]4(CC#N)C[C@@H](C#N)C4)n3)c3cccnc3c2)c(N)n1 [Example 333, trans-3-{4-[7-(3-amino-1-methyl-1H-pyrazol-4-yl)quinolin-5-yl]-2H-1,2,3-triazol-2-yl}-3-(cyanomethyl)cyclobutanecarbonitrile]
1670 nM | 76 nM | > 10000 nM |  |  |  |  |  | CS(=O)(=O)N1CC(CC#N)(n2ccc(-c3nc(-c4cnn(CC5(O)COC5)c4)cc4ncccc34)n2)C1 [Example 133, {3-[3-(7-{1-[(3-hydroxyoxetan-3-yl)methyl]-1H-pyrazol-4-yl}-1,6-naphthyridin-5-yl)-1H-pyrazol-1-yl]-1-(methylsulfonyl)azetidin-3-yl}acetonitrile]
 |  |  |  | > 10000 nM | > 10000 nM |  | 1090 nM | CS(=O)(=O)N1CC(CC#N)(n2ncc(-c3cc(-c4c[nH]c5nccc-5c4)cc4ncccc34)n2)C1 [Example 415, [1-(methylsulfonyl)-3-{4-[7-(7H-pyrrolo[2,3-b]pyridin-5-yl)quinolin-5-yl]-2H-1,2,3-triazol-2-yl}azetidin-3-yl]acetonitrile]
9580 nM | 347 nM | > 10000 nM |  |  |  |  |  | N#CCC1(n2ccc(-c3nc(-c4ccnnc4)cc4ncccc34)n2)CN(CC(F)(F)F)C1 [Example 233, [3-{3-[7-(pyridazin-4-yl)-1,6-naphthyridin-5-yl]-1H-pyrazol-1-yl}-1-(2,2,2-trifluoroethyl)azetidin-3-yl]acetonitrile]
365 nM | 15 nM | > 10000 nM |  |  |  |  |  | COc1nc(-c2cc3ncccc3c(-c3ccn([C@]4(CC#N)C[C@H](C#N)C4)n3)n2)ccc1N [Example 223, cis-3-{3-[7-(5-amino-6-methoxypyridin-2-yl)-1,6-naphthyridin-5-yl]-1H-pyrazol-1-yl}-3-(cyanomethyl)cyclobutanecarbonitrile]

Structure (SMILES) | IC50 (JAK1) | IC50 (TYK2) | IC50 (JAK3) | IC50 (JAK2) | IC50 (JAK1; JAK Caliper enzyme assay) | IC50 (JAK3; JAK Caliper enzyme assay) | IC50 (JAK2; JAK Caliper enzyme assay) | IC50 (TYK2; JAK Caliper enzyme assay)
N#CC[C@]1(n2ncc(-c3cc(-c4cccc(C(N)=O)n4)cc4ncccc34)n2)C[C@H](C#N)C1 [Example 350, 6-(5-{2-[cis-3-cyano-1-(cyanomethyl)cyclobutyl]-2H-1,2,3-triazol-4-yl}quinolin-7-yl)pyridine-2-carboxamide] | 97 nM | 7 nM | 2470 nM |  |  |  |  | 
N#CC[C@]1(n2ccc(-c3nc(-c4ccc(N)c(C(N)=O)n4)cc4ncccc34)n2)C[C@H](C#N)C1 [Example 224, 3-amino-6-(5-{1-[cis-3-cyano-1-(cyanomethyl)cyclobutyl]-1H-pyrazol-3-yl}-1,6-naphthyridin-7-yl)pyridine-2-carboxamide] | 1940 nM | 45 nM | > 10000 nM |  |  |  |  | 
N#CC[C@]1(n2ccc(-c3nc(-c4ccc(N)c(C(N)=O)n4)cc4ncccc34)n2)C[C@@H](C#N)C1 [Example 225, 3-amino-6-(5-{1-[trans-3-cyano-1-(cyanomethyl)cyclobutyl]-1H-pyrazol-3-yl}-1,6-naphthyridin-7-yl)pyridine-2-carboxamide] | 215 nM | 9 nM | > 10000 nM |  |  |  |  | 
